Measurements from PubChem BioAssay (NCI).
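All cell lines were grown in 96-well plates and treated with compound for 48 hours. TGI is the concentration that stops growth completely.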

Key:
Assay in all cases: inhibition of tumour cell growth, NCI panel, 48 h
[1] = system: 786-0 renal
[2] = system: A498 renal
[3] = system: DLD-1 colon
[4] = system: DMS 114 small cell lung
[5] = system: HCC-2998 colon
[6] = system: HL-60(TB) leukemia
[7] = system: KM20L2 colon
[8] = system: LXFL 529 NSCLC
[9] = system: M19-MEL melanoma
[10] = system: MALME-3M melanoma
[11] = system: OVCAR-5 ovarian
[12] = system: SNB-78 CNS
[13] = system: UO-31 renal

Row | SMILES | TGI [1] | TGI [2] | TGI [3] | TGI [4] | TGI [5] | TGI [6] | TGI [7] | TGI [8] | TGI [9] | TGI [10] | TGI [11] | TGI [12] | TGI [13]
1 | C[Si](C)(C)/C=C/CN1C(=O)CCC1O (stereo not drawn) | > 100 µM | > 100 µM | > 100 µM | > 100 µM | > 100 µM | > 100 µM | > 100 µM | > 100 µM | > 100 µM | > 100 µM | > 100 µM | > 100 µM | > 100 µM
2 | CC1(C)OCN(c2ccc(Cl)cc2)Cn2c1nc1ccccc12 | > 100 µM | > 100 µM | > 100 µM | 53.2 µM | > 80.9 µM | 47.8 µM | > 100 µM | > 100 µM | > 100 µM | > 100 µM | > 100 µM | > 100 µM | 97.1 µM
3 | COc1ccc(O)c2c1C(=O)CCCC2=O | > 100 µM | > 100 µM | > 100 µM | > 100 µM | > 100 µM | > 100 µM | > 100 µM | > 100 µM | > 100 µM | > 100 µM | > 100 µM | > 100 µM | > 100 µM
4 | O=c1cccccc1NCCCCNc1cccccc1=O | > 100 µM | > 100 µM | > 100 µM | > 100 µM | > 100 µM | > 100 µM | > 100 µM | > 100 µM | > 100 µM | > 100 µM | > 100 µM | > 100 µM | > 100 µM
5 | COc1cc(C2C(C(=O)Nc3ccccc3)=C(C)NC(C)=C2C(=O)Nc2ccccc2)ccc1O | > 100 µM | > 100 µM | > 100 µM | > 100 µM | > 100 µM | 54.2 µM | 40 µM | > 100 µM | > 100 µM | > 100 µM | > 100 µM | > 100 µM | > 100 µM
6 | O=c1c([Se]c2coc3ccccc3c2=O)coc2ccccc12 | 32.9 µM | 33.6 µM | 34 µM | 31.5 µM | 33.2 µM | > 100 µM | 26.4 µM | 28.8 µM | 28.6 µM | 31.8 µM | 30.3 µM | 34.7 µM | 26.3 µM
